Results as given in US6821289B2, “Efficacy and safety of photodynamic therapy by multiple application protocols with photosensitizers that show extended tumor retention” (CeramOptec Industries, Inc., priority 2003, dated 2004).

Tests used:
tumor [1] = details: mice; cited from earlier work
pancreas carcinoma = experiment: PDT of a pancreas carcinoma, four intravenous administrations (Example 1); format: in vivo; details: 100-200 J/cm^2 at approximately 100 mW/cm^2
Experimental: A formulation of the PS pheophorbide a is administered intravenously 4 times as described above, with doses ranging from approximately 2 to 20 mg of PS per kilogram of body weight, achieving an at least a 50:1 ratio of PS content in the carcinoma to the PS content in the surrounding healthy pancreatic tissue. Light guiding fibres are placed within the tumor under imaging guidance. The tumor is irradiated with an energy density sufficient to necrotize the diseased tissue, preferably 100-200 J/cm^2, at a power density of approximately 100 mW/cm^2.

rat pituitary tumor = details: cited from earlier work
[2] = test system: xenografted human pancreatic tumor; details: cited from earlier work
tumor [3] = experiment: PS concentration over time in tumor and normal tissue during repetitive administration of pheophorbide a (FIG. 1); format: in vivo
Experimental: FIG. 1 Graphic representation of PS concentration over time in tumor and normal tissue, for example the skin, during repetitive administration of pheophorbide a.
FIG. 1 illustrates preferred intervals between administration of doses of pheophorbide a in cancerous tissue. As is shown in the figure, upon a first administration the concentration of pheophorbide a is initially high and slowly decreases. The concentration in healthy tissue quickly decreases and levels off, where at 24 hours the concentration in healthy tissue is very low and has reached a point where the concentration decreases very slowly. After the first 24 hour interval, the concentration in the tumor is 17 times that in healthy cells. The same effect is observed after the second administration of pheophorbide a. As a result, after a total of four administrations and a total time of 96 hours, the concentration of pheophorbide a in healthy tissues remains very small, and the concentration in the tumor is greater by a factor of 68.

[4] = test system: chemically induced rat skin tumor; details: cited from earlier work
pancreatic tumor = details: rats, cited from earlier work

| Compound | change in concentration in plasma, single versus double injections (tumor [1]) | relative concentration in skin and tumor tissue, single versus double injections (tumor [1]) | effect on surrounding tissue upon irradiation (pancreas carcinoma) | time at which content of normal pituitary gland reached a basal value (rat pituitary tumor; rat normal pituitary gland) [h] | change of pheophorbide a content of tumor (rat pituitary tumor; rat pituitary tumor, during 6 hours after administration) | time at which PS content of normal skin reached a low basal value ([2]; nude mice normal skin) [h] | change of pheophorbide a content of tumor ([2]; xenografted human pancreatic tumor in nude mice, between 4 and 48 hours after administration) | concentration in tumor relative to healthy tissues (tumor [3]; after four administrations, total time 96 hours) [factor] | concentration in tumor relative to healthy cells (tumor [3]; after the first 24 hour interval, one administration) [times] | time for which pheophorbide a content remained high in tumor ([4]; chemically induced rat skin tumor, after administration) | time at which pheophorbide a content of normal skin reached a basal value ([4]; rat normal skin, after administration) [h] | basal normal skin content as fraction of tumor pheophorbide a content ([4]; rat, 24 hours after administration) | time at which pheophorbide a content of normal pancreas reached a low constant value (pancreatic tumor; normal pancreas) [h] | time for which content of pancreatic tumor remained elevated (pancreatic tumor; pancreatic tumor) |
| --- | --- | --- | --- | --- | --- | --- | --- | --- | --- | --- | --- | --- | --- | --- |
| Oc1cccc(-c2c3nc(c(-c4cccc(O)c4)c4ccc([nH]4)c(-c4cccc(O)c4)c4nc(c(-c5cccc(O)c5)c5ccc2[nH]5)CC4)C=C3)c1 [Foscan, meta-tetrahydroxyphenylchlorin] | not significantly different | nor was the relative concentration in skin and tumor tissue significantly different |  |  |  |  |  |  |  |  |  |  |  |  |
| pheophorbide a |  |  | remains intact | 4 | decreased slowly | 24 | did not decrease | 68 | 17 | up to 48 hours | ≤ 24 | one tenth | 24 | at least 48 hours |
